Test results as given in ChEMBL document CHEMBL1201862, “PubChem BioAssay data set” (2004).
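Dose response: 5 concentrations. Exposure: 48 h. Format: 96-well plates. Endpoint: linear interpolation; highest concentration if not reached. Abbreviation: GI50, concentration required for 50% inhibition of growth.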 Calls of active or inactive are those of the source. Rule as the data show it: active = GI50 up to about 1.1 µM and inactive = higher.

What was measured:
Experiment in all cases: growth of human tumour cells (NCI), 48 h
IGROV-1 = tested on: IGROV-1
SW-620 = tested on: SW-620
NCI/ADR-RES = tested on: NCI/ADR-RES
MCF7 = tested on: MCF7
T47D = tested on: T47D
UO-31 = tested on: UO-31
SNB-19 = tested on: SNB-19
A549 = tested on: A549
SF-295 = tested on: SF-295
UACC-62 = tested on: UACC-62
CCRF-CEM = tested on: CCRF-CEM
HOP-62 = tested on: HOP-62
TK-10 = tested on: TK-10
MDA-MB-231 = tested on: MDA-MB-231
SF-268 = tested on: SF-268
NCI-H460 = tested on: NCI-H460
K562 = tested on: K562
OVCAR-4 = tested on: OVCAR-4
HCT-116 = tested on: HCT-116
UACC-257 = tested on: UACC-257
HCC 2998 = tested on: HCC 2998
COLO 205 = tested on: COLO 205
SR = tested on: SR
MDA-MB-435 = tested on: MDA-MB-435
SK-MEL-5 = tested on: SK-MEL-5
CAKI-1 = tested on: CAKI-1
SN12C = tested on: SN12C
SK-OV-3 = tested on: SK-OV-3
NCI-H226 = tested on: NCI-H226
EKVX = tested on: EKVX
HCT-15 = tested on: HCT-15
RXF 393 = tested on: RXF 393
NCI-H23 = tested on: NCI-H23
786-0 = tested on: 786-0
MDA-N = tested on: MDA-N
OVCAR-3 = tested on: OVCAR-3
OVCAR-5 = tested on: OVCAR-5
DU-145 = tested on: DU-145
KM12 = tested on: KM12
BT-549 = tested on: BT-549
NCI-H522 = tested on: NCI-H522
HL-60 = tested on: HL-60
Hs-578T = tested on: Hs-578T
OVCAR-8 = tested on: OVCAR-8
Malme-3M = tested on: Malme-3M
RPMI-8226 = tested on: RPMI-8226
HOP-92 = tested on: HOP-92
M14 = tested on: M14
MOLT-4 = tested on: MOLT-4
U-251 = tested on: U-251
PC-3 = tested on: PC-3
SF-539 = tested on: SF-539
ACHN = tested on: ACHN
HT-29 = tested on: HT-29
LOX IMVI = tested on: LOX IMVI
A498 = tested on: A498
SNB-75 = tested on: SNB-75
SK-MEL-2 = tested on: SK-MEL-2
SK-MEL-28 = tested on: SK-MEL-28

Q: Which results are given for `O=C(NNC(=O)c1ccc(Cl)cc1NC(=O)C12CC3CC(CC(C3)C1)C2)c1ccc(Cl)cc1`?
A: GI50 (IGROV-1): 15 µM (inactive); GI50 (SW-620): 32.1 µM (inactive); GI50 (NCI/ADR-RES): 24.8 µM (inactive); GI50 (MCF7): 27.9 µM (inactive); GI50 (T47D): 27.9 µM (inactive); GI50 (UO-31): 17.1 µM (inactive); GI50 (SNB-19): 19.1 µM (inactive); GI50 (A549): 19.5 µM (inactive); GI50 (SF-295): 22.9 µM (inactive); GI50 (UACC-62): 21.7 µM (inactive); GI50 (CCRF-CEM): 23.4 µM (inactive); GI50 (HOP-62): 19.8 µM (inactive); GI50 (TK-10): 20.1 µM (inactive); GI50 (MDA-MB-231): 22 µM (inactive); GI50 (SF-268): 29.9 µM (inactive); GI50 (NCI-H460): 23.2 µM (inactive); GI50 (K562): 34.9 µM (inactive); GI50 (OVCAR-4): 34.8 µM (inactive); GI50 (HCT-116): 20.3 µM (inactive); GI50 (UACC-257): 25.8 µM (inactive); GI50 (HCC 2998): 17.1 µM (inactive); GI50 (COLO 205): 14.5 µM (inactive); GI50 (SR): 28.8 µM (inactive); GI50 (MDA-MB-435): 18.6 µM (inactive); GI50 (SK-MEL-5): 18 µM (inactive); GI50 (CAKI-1): 24.4 µM (inactive); GI50 (SN12C): 27.7 µM (inactive); GI50 (SK-OV-3): 25.3 µM (inactive); GI50 (NCI-H226): 22.7 µM (inactive); GI50 (EKVX): 23.2 µM (inactive); GI50 (HCT-15): 17.5 µM; GI50 (RXF 393): 19.5 µM (inactive); GI50 (NCI-H23): 39.7 µM (inactive); GI50 (786-0): 22.5 µM (inactive); GI50 (MDA-N): 22 µM (inactive); GI50 (OVCAR-3): 19.5 µM (inactive); GI50 (OVCAR-5): 28.3 µM (inactive); GI50 (DU-145): 22.8 µM (inactive); GI50 (KM12): 20.3 µM (inactive); GI50 (BT-549): 41.7 µM (inactive); GI50 (NCI-H522): 14.7 µM (inactive); GI50 (HL-60): 25.7 µM (inactive); GI50 (Hs-578T): 21.5 µM (inactive); GI50 (OVCAR-8): 32.7 µM (inactive); GI50 (Malme-3M): 11.4 µM (inactive); GI50 (RPMI-8226): 15.7 µM (inactive); GI50 (HOP-92): 17.5 µM (inactive); GI50 (M14): 21.2 µM (inactive); GI50 (MOLT-4): 30.1 µM (inactive); GI50 (U-251): 20.2 µM (inactive); GI50 (PC-3): 26.8 µM (inactive); GI50 (SF-539): 23.7 µM (inactive); GI50 (ACHN): 23.6 µM (inactive); GI50 (HT-29): 28.2 µM (inactive); GI50 (LOX IMVI): 18.5 µM (inactive)

Q: `COC(=O)NNC(c1ccc(Cl)cc1)c1ccc(Cl)cc1` was tested. Which GI50 (IGROV-1) did it give?
A: 16.4 µM (inactive)

Q: What about the GI50 (SW-620) of the same molecule?
A: 25.1 µM (inactive)

Q: What about the GI50 (NCI/ADR-RES) of the same molecule?
A: 18.2 µM (inactive)

Q: And the GI50 (MCF7)?
A: 23.7 µM (inactive)

Q: And the GI50 (T47D)?
A: 19.9 µM (inactive)

Q: What about the GI50 (UO-31) of the same molecule?
A: 12.5 µM (inactive)

Q: What about the GI50 (SNB-19) of the same molecule?
A: 17.3 µM (inactive)

Q: What about the GI50 (A549) of the same molecule?
A: 15.3 µM (inactive)

Q: What about the GI50 (UACC-62) of the same molecule?
A: 16 µM (inactive)

Q: What about the GI50 (CCRF-CEM) of the same molecule?
A: 17.1 µM (inactive)

Q: And the GI50 (A498)?
A: 18.6 µM (inactive)

Q: And the GI50 (TK-10)?
A: 17.6 µM (inactive)

Q: And the GI50 (MDA-MB-231)?
A: 12.2 µM (inactive)

Q: What about the GI50 (SF-268) of the same molecule?
A: 21.8 µM (inactive)

Q: What about the GI50 (SNB-75) of the same molecule?
A: 26.2 µM (inactive)

Q: What about the GI50 (NCI-H460) of the same molecule?
A: 16.5 µM (inactive)

Q: And the GI50 (K562)?
A: 22.2 µM (inactive)

Q: What about the GI50 (OVCAR-4) of the same molecule?
A: 20.8 µM (inactive)

Q: And the GI50 (HCT-116)?
A: 15.7 µM (inactive)

Q: What about the GI50 (UACC-257) of the same molecule?
A: 18.2 µM (inactive)

Q: What about the GI50 (HCC 2998) of the same molecule?
A: 13.5 µM (inactive)

Q: And the GI50 (COLO 205)?
A: 18.1 µM (inactive)

Q: And the GI50 (SR)?
A: 20.2 µM (inactive)

Q: What about the GI50 (MDA-MB-435) of the same molecule?
A: 31.8 µM (inactive)

Q: And the GI50 (SK-MEL-5)?
A: 16.5 µM (inactive)

Q: And the GI50 (CAKI-1)?
A: 16.1 µM (inactive)

Q: And the GI50 (SN12C)?
A: 19.5 µM (inactive)

Q: And the GI50 (SK-OV-3)?
A: 23.7 µM (inactive)

Q: And the GI50 (NCI-H226)?
A: 17.3 µM (inactive)

Q: And the GI50 (EKVX)?
A: 18.8 µM (inactive)

Q: What about the GI50 (HCT-15) of the same molecule?
A: 15.2 µM

Q: What about the GI50 (RXF 393) of the same molecule?
A: 10.5 µM (inactive)

Q: And the GI50 (NCI-H23)?
A: 16.3 µM (inactive)

Q: And the GI50 (786-0)?
A: 17.1 µM (inactive)

Q: What about the GI50 (MDA-N) of the same molecule?
A: 22.3 µM (inactive)

Q: And the GI50 (OVCAR-3)?
A: 15.2 µM (inactive)

Q: And the GI50 (OVCAR-5)?
A: 15.7 µM (inactive)

Q: And the GI50 (DU-145)?
A: 31 µM (inactive)

Q: And the GI50 (KM12)?
A: 17 µM (inactive)

Q: What about the GI50 (SK-MEL-2) of the same molecule?
A: 12.4 µM (inactive)

Q: And the GI50 (BT-549)?
A: 16.1 µM (inactive)

Q: And the GI50 (NCI-H522)?
A: 19.6 µM (inactive)

Q: And the GI50 (HL-60)?
A: 21 µM (inactive)

Q: What about the GI50 (Hs-578T) of the same molecule?
A: 20.4 µM (inactive)

Q: What about the GI50 (OVCAR-8) of the same molecule?
A: 19.1 µM (inactive)

Q: And the GI50 (Malme-3M)?
A: 20.6 µM (inactive)

Q: And the GI50 (RPMI-8226)?
A: 20.9 µM (inactive)

Q: And the GI50 (M14)?
A: 15.7 µM (inactive)

Q: What about the GI50 (MOLT-4) of the same molecule?
A: 16.5 µM (inactive)

Q: And the GI50 (U-251)?
A: 19.5 µM (inactive)

Q: And the GI50 (PC-3)?
A: 12.2 µM (inactive)

Q: What about the GI50 (SF-539) of the same molecule?
A: 20.7 µM (inactive)

Q: And the GI50 (HT-29)?
A: 16.5 µM (inactive)

Q: What about the GI50 (SK-MEL-28) of the same molecule?
A: 18.7 µM (inactive)

Q: And the GI50 (LOX IMVI)?
A: 16.4 µM (inactive)
